Test results from EP0846269B1, “A METHOD OF DETERMINING THE DEGREE OF AGGREGATION OF THE BETA A4 PEPTIDE” (Aventis Pharmaceuticals Inc., priority 1995, dated 1997).
Residues, ends and D or L forms follow the SMILES beside them.

Target: β-amyloid (also known as βA4) peptide (Homo sapiens, UniProt P05067)
Experiment: Bradford dye (Coomassie Brilliant Blue G-250) assay of β-amyloid peptide aggregation, absorbance at 595 nm
Assay type: biochemical
Details: for inhibition at 500 µM: 500 µM compound; for inhibition at 1000 µM: 1 mM (or 1000 µM) compound
Protocol: β-amyloid (also known as βA4) peptide was dissolved in 100% dimethylsulfoxide (DMSO) at 10 mg/mL (or 2500 µM) concentration. The resultant solution was diluted to 1 mg/ml (or 250 µM) stock in Phosphate Buffered Saline (PBS), pH 7.4, just prior to setting up the assay and dispensed in individual sample wells of a Corning 96-well plate at 16µL per well (i.e. a final concentration of 25 µM). All treatments were done in triplicate.
In this example, the candidate compound was added to the test wells at three different concentrations (250µM, 500µM and 1mM). Total volume in each well was brought up to 160µL with PBS. For untreated control wells, no compound was added to the β-amyloid peptide, and the total volume was made to 160µL with PBS. The plates were sealed with parafilm and incubated at 37°C for 48 hours.
(§1) At the end of the incubation period, the plates were taken out and 25µL of Bio-Rad protein assay dye reagent (Bradford dye) was added to all the wells with samples. A standard curve was also set up at this time for estimation of fresh (also considered as unaggregared) peptide absorbance. The dye was mixed by pipeting and the plates quickly spun at 2500 rpm to remove bubbles.
The absorbance was read at 595 nm in a Dynatech MR5000 plate reader 15 minutes after adding the dye. The percent decrease in aggregation of β-amyloid due to the addition of candidate compound A41920t which is a 8-mer peptide of sequence Glutamine-Lysine-Leucine-Valine-Threonine-Threonine-Alanine-Glutamate ([…]) was calculated from the difference between untreated aggregated peptide and the treated aggregated peptide.
The procedure of Example 1 was repeated except that hydrogen peroxide (10µL of 30% stock) was added to the wells in a 96-well plate with 16µL of the 1 mg/mL β-amyloid stock. The final volume was then brought up to 160µL by adding 134µL of PBS to these wells. The plate was sealed and incubated at 37°C for 48 hours.
as §1, with “samples as in Example 1.” for “samples.”, “again used” for “also set up at this time”, “unaggregated)” for “unaggregared)”
The absorbance was read at 595nm in the Dynatech MR5000 plate reader 15 minutes after adding the dye. The amount of aggregation was estimated by subtracting background and taking the difference between the fresh and hydrogen peroxide treated β-amyloid readings. The difference was expressed as percent over fresh or unaggregated peptide.

[1] = 25 µM β-amyloid, PBS pH 7.4, 37°C, 48 hours, read-out: percent decrease in aggregation of β-amyloid

Chain of β-amyloid (also known as βA4) peptide (P05067 672-713 limits assumed): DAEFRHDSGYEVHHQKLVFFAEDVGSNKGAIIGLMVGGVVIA

Compound | inhibition at 250 µM (250 µM compound, 25 µM β-amyloid, PBS pH 7.4, 37°C, 48 hours, read-out: percent decrease in aggregation of β-amyloid) [%] | inhibition at 500 µM [1] [%] | inhibition at 1000 µM [1] [%] | percentage of aggregation (10µL of 30% stock in 160µL, 37°C, after 48 hrs, percent over fresh or unaggregated peptide) [%]
CC(C)CC(NC(=O)C(CCCCN)NC(=O)C(N)CCC(N)=O)C(=O)NC(C(=O)NC(C(=O)NC(C(=O)NC(C)C(=O)NC(CCC(=O)O)C(=O)O)C(C)O)C(C)O)C(C)C (stereo not drawn) [A41920t, Glutamine-Lysine-Leucine-Valine-Threonine-Threonine-Alanine-Glutamate (QKLVTTAE)] (H-QKLVTTAE-OH; configuration not given here) | 48.1 | 52.4 | 32.3 | –
OO [hydrogen peroxide] | – | – | – | 97.7
CCCn1cnc2c1c(=O)n(CCCCC(C)=O)c(=O)n2C [propentofylline, 1-(5'-oxohexyl)-3-methyl-7-propyl-2,6-(1H,3H)-purinedione] | – | 29.7 | 37.4 | –
